Here are results for three compounds from patent publication US20030157712A1, “Methods for determining cell responses through EphB receptors” (priority 1997, published 2003).

The subject of one experiment is HRMEC. Briefly: Endothelial assembly into capillary-like structures (HRMEC). The format is cell-based, human. The settings on record: HRMEC on Matrigel, two dimensional in vitro assay, 8 h. The protocol:
Endothelial assembly into capillary-like structures. Twelve well plates (Falcon) were coated with thin layers of Matrigel. HRMEC were plated at a density of 4×10^4 cells/well in DME containing 1% fetal bovine serum. Indicated agonists, control peptides, alone, or in combination with the EphB1/Fc antagonist (1000 ng ml^−1) (FIG. 5) were added at the time of plating. Cells were incubated at 37° C. for 8 h and photographed using phase microscopy (magnification 100×) (Diaphot-TMD, Nikon).

Experiment [1] relates to human renal microvascular endothelial cells. Briefly: Solid phase cell attachment assay (HRMEC). The format is cell-based. How it is done: Solid phase cell attachment assays. Forty-eight-well plates (Falcon) were coated with a layer of nitrocellulose (Schleicher & Schuell) and allowed to air dry as described (47). Coated wells were incubated overnight at 4° C. with PBS containing matrix proteins at the indicated concentrations alone (no addition, NA) or in combination with dimeric EphrinB1/Fc. Two hours prior to assay, wells were washed twice then blocked at 37° C. with 1% BSA. Serum starved cells were harvested in 2 mM EDTA in PBS (HEK293) or recovered by trypsinization (HRMEC), washed twice in serum free medium containing 1% BSA, then plated at a density of 0.7-1×10^5 cells per well. After incubation at 37° C. for 1 hour (or as specified), unattached cells were dislodged by 5 brisk slaps of the plate on a horizontal surface. Wells were gently washed with PBS until cells were […] to albumin-coated wells. Adherent cells were fixed with 2% glutaraldehyde, stained with 0.5% crystal violet (in EtOH), and quantified by OD reading at 570 nm. In experiments using competitive peptides or blocking antibodies, cells were preincubated with the indicated peptides (100 μM) or antibodies (10 μg/ml) for 15 min at RT before plating. Results representative of three independent experiments are given as OD values and represent the mean of duplicate or triplicate wells±SEM. […]

For `CCCCCCCCCCCCCC(=O)O[C@@H]1[C@@H](C)[C@@]2(O)[C@@H](C=C(CO)C[C@]3(O)C(=O)C(C)=C[C@@H]23)[C@@H]2C(C)(C)[C@]12OC(C)=O` [phorbol myristate acetate, reference compound], in the experiment on HRMEC, the endothelial capillary-like assembly result is on record as “stimulated”. In the case of “GRGDSPK [RGD peptide, reference compound]”, the “support of the ephrin-B1 induced increase in endothelial attachment” value in experiment [1] (peptide-coated 48-well plates) was “sufficient”. In the case of fibrinogen [reference compound], the “threshold surface density of adsorbed matrix protein required to promote attachment” value in experiment [1] (nitrocellulose surface) was “approximately 1 ug/cm^2”.
